Assay results as given in patent publication US12583892B2 (priority 2020, dated 2026).

System: NMDAR-dependent EPSCs
Format: cell-based, rat

CC(C(O)c1ccc(O)cc1)N1CCC(Cc2ccccc2)CC1 (stereo not shown) [ifenprodil] was tested, and the “NMDARs-dependent EPSCs, young neurons” value was “inhibition”.
